How the values were obtained:
[1] = test system: pancreatic cancer xenograft PAXF 546; experiment: clonogenic assay, single agents and combination studies; type: cell-based, human; conditions: observed; X261, X295
Procedure: (§1) The cell mixture was passed through sieves of 200 μm and 50 μm mesh size and washed thereafter twice with PBS. The percentage of viable cells was determined in a Neubauer counting chamber using trypan blue exclusion.
(§2) 8×10^3 to 1,6×10^4 cells were added to 0.2 ml of the same culture medium together with 0.4% agar and placed in already coated 24-multiwell dishes. Test substances were applied by continuous exposure (drug overlay) in 0.2 ml medium. Every dish included six control wells containing the vehicle- and drug-treated groups in triplicate at six concentrations.
(§3) Cultures were incubated at 37° and 7% CO2 in a humidified atmosphere for 5 to 15 days (depending on the doubling time of the tumor stem cells) and monitored for colony growth using an inverted microscope. Within this period, in vitro tumor growth led to the formation of colonies with a diameter of ≧50 μm. At the time of maximum colony formation counts were performed with an automatic image analysis system (OMNICOM Fas IV, Biosys GmbH). […] Drug effects were expressed in terms of the percentage of surviving cells, obtained by comparison of the mean number of colonies in the treated plates with the mean colony count of the untreated controls (test-versus-control-group value, T/C=colony countTreated Group*100/colony countControl Group).
(§4) Coefficient of variation in the control group ≦50%. IC50 and IC70 values were determined by plotting compound concentration versus cell survival rate. Mean IC50 and IC70 values were calculated according to the formula: [formula]
(§5) with x=specific tumor xenograft and n=total number of tumor xenografts studied. If an IC50 or IC70 value could not be determined within the examined dose range, the lowest or highest concentration studied was used for the calculation.
(§6) Each experiment included the chemotherapeutic agents in 6 concentrations, selenium in 2 concentrations (3 and 30 μM), and the combination of all doses with selenium at 3 and 30 μM. All compounds and combinations were studied in triplicates. […] Each experiment was performed twice.
(§7) T/Cexpectd(A+B)=T/C(A)×T/C(B)/100
(§8) For a zero-interactive drug combination (additivity of drug effects) T/Cexpected(A+B)[…]T/Cobserved(A+B). A drug combination is synergistic if T/Cobserved(A+B) is statistically significant[…]T/Cexpected(A+B). Statistical significance was determined by the T-test.

[2] = test system: pancreatic cancer xenograft PAXF 736; experiment: as above; type: cell-based, human; conditions: (X261, X295)
Procedure: as §1, §2, §3, §4, §5, §6, §7, §8

Nc1ccn([C@@H]2O[C@H](CO)[C@@H](O)C2(F)F)c(=O)n1 [Gemcitabine]
T/C in % at a gemcitabine concentration (μM) [1]: 85 ± 15% | T/C in % at a gemcitabine concentration (μM) of 1.0 [1]: 30 ± 6% | T/C in % at a gemcitabine concentration (μM) of 1 × 10^−1 [1]: 48 ± 8% | T/C in % at a gemcitabine concentration (μM) of 1 × 10^−2 [1]: 61± 11% | T/C in % at a gemcitabine concentration (μM) of 1 × 10^−3 [1]: 83 ± 12% | T/C in % at a gemcitabine concentration (μM) of 1 × 10^−4 [1]: 80 ± 12% | T/C in % at a gemcitabine concentration (μM) of 1 × 10^−5 [1]: 73 ± 20% | T/C in % at a gemcitabine concentration (μM) of 1 × 10^−1 ([2]; gemcitabine alone): 30 ± 8% | T/C in % at a gemcitabine concentration (μM) of 1 × 10^−2 ([2]; gemcitabine alone): 71± 10% | T/C in % at a gemcitabine concentration (μM) of 1 × 10^−3 ([2]; gemcitabine alone): 77 ± 13% | T/C in % at a gemcitabine concentration (μM) of 1 × 10^−4 ([2]; gemcitabine alone): 84 ± 12% | T/C in % at a gemcitabine concentration (μM) of 1 × 10^−5 ([2]; gemcitabine alone): 78 ± 14% | T/C in % at a gemcitabine concentration (μM) of 1 × 10^−6 ([2]; gemcitabine alone): 89 ± 11%

CO[C@@]12[C@H](COC(N)=O)C3=C(C(=O)C(C)=C(N)C3=O)N1C[C@@H]1N[C@@H]12 [Mitomycin C]
T/C in % at a mitomycin C concentration (μM) [1]: 87 ± 11% | T/C in % at a mitomycin C concentration (μM) of 1.0 [1]: 5 ± 2% | T/C in % at a mitomycin C concentration (μM) of 1 × 10^−1 [1]: 57 ± 8% | T/C in % at a mitomycin C concentration (μM) of 1 × 10^−2 [1]: 80± 12% | T/C in % at a mitomycin C concentration (μM) of 1 × 10^−3 [1]: 70 ± 13% | T/C in % at a mitomycin C concentration (μM) of 1 × 10^−4 [1]: 70 ± 10% | T/C in % at a mitomycin C concentration (μM) of 1 × 10^−5 [1]: 84 ± 14% | T/C in % at a mitomycin C concentration (μM) of 1 × 10^−1 ([2]; mitomycin C alone): 11 ± 7% | T/C in % at a mitomycin C concentration (μM) of 1 × 10^−2 ([2]; mitomycin C alone): 30± 7% | T/C in % at a mitomycin C concentration (μM) of 1 × 10^−3 ([2]; mitomycin C alone): 46 ± 8% | T/C in % at a mitomycin C concentration (μM) of 1 × 10^−4 ([2]; mitomycin C alone): 56 ± 11% | T/C in % at a mitomycin C concentration (μM) of 1 × 10^−5 ([2]; mitomycin C alone): 58 ± 10% | T/C in % at a mitomycin C concentration (μM) of 1 × 10^−6 ([2]; mitomycin C alone): 77 ± 13%
